Data reported in patent US20190070170A1, “METHOD OF S[…]-1” (Macau University of Science and Technology, priority 2017, published 2019).

Assays:
COX-2 = COX-2 protein in microsomes of inflamed paw of carrageenan-induced rats (western blotting); type: in vivo, SD rats; conditions: SIN or DEX pretreatment i.p.
Description: The model of carrageenan-induced paw edema was performed with SD rats (150-200 g). The carrageenan-induced paw edema was performed in SD rats (150-200 g) by subcutaneously injection λ-carrageenan as described in Liu J. et al., Pharmacological research 2016, 111 and Luo P. et al., J. Pharmacol. Exp. Ther. 2010. Briefly, rats were fasted for 12 h before experiment and intraperitoneal injection was performed with three different doses (25, 50 and 100 mg/kg) of SIN, or DEX (reference drug, 2 mg/kg) or 0.9% saline (Vehicle and Normal group rats), at 2 h prior to the induction of paw edema. […] Paw volumes (ml) of right hind foot of each rat were measured using a plethysmometer (type 7150; UGO Basile, Comerio, Italy) at 0 h (before carrageenan injection) and then again at 1, 2, 3 and 4 h after the injection of carrageenan or saline. The percentage of paw edema of the right hind paws of all groups were calculated at different time points by the following equation: […]
Whole-cell and nuclear proteins were obtained using RIPA lysis buffer (CST, Boston, Mass., USA) and Nuclear and Cytoplasmic Extraction Reagents kit from Thermo Scientific (Asheville, N.C., USA), respectively. […] The levels of protein expression were measured using Odyssey v3.0 software from Li-COR (Lincoln, Nebr., USA).

CEBPβ (COX-2 promoter) = assay: ChIP assay: CEBPβ DNA binding to COX-2 promoter in LPS-stimulated rat peritoneal macrophages; type: cell-based; conditions: 640 μM SIN 1 h, 1 μg/ml LPS 30 min
Description: Rat peritoneal macrophages were pretreated with 640 μM SIN (1 h) and stimulated with 1 μg/ml LPS (30 min) before fixation at room temperature for 10 min with 1% formaldehyde. Fixation was terminated by adding glycine (to 0.125 M) with an additional incubation of 5 min, then the cells were washed twice with ice-cold PBS and harvested by scraping and centrifugation (1500 rpm for 10 min at 4° C.). Cell lysis was performed using ChIP kit from abcam (Cambridge, UK) according to the manufacturer's instructions. Briefly, cell pellets were resuspended in 1 ml Buffer B by pipetting up and down several times in a microcentrifuge tube and incubated at room temperature for 10 min. After centrifugation at 5000 rpm, the pellet was collected and resuspended in ice cold Buffer C and incubated on ice for 10 min, followed by centrifugation (5,000 rpm for 10 min at 4° C.). The pellet was mixed with 100 μl Buffer D containing protease inhibitors, incubated on ice for 10 min and sonicated for 30 cycles in a Bioruptor UCD-300 sonicator (power on high, 30 s on, 30 s off per cycle), yielding DNA fragments of 150-200 bps (the size of sonicated chromatin was checked through running 2% agarose gel). Beads were blocked overnight in PBS with 0.5% BSA and then added to the samples. […]

p65 = assay: Nuclear translocation of p65 in LPS-stimulated RAW264.7 cells (immunofluorescence); type: cell-based, mouse; conditions: 640 μM SIN 1 h, then LPS
Description: RAW 264.7 cells were seeded on glass coverslip at a density 2.0×10^5 cells/well in 6-well plates and incubated for 24 h. Cells were pretreated with 640 μM SIN for 1 h and followed stimulated by LPS (100 ng/ml) for another 1 h. Rat primary peritoneal macrophages were grown on glass coverslip at a density 4.5×10^6 cells/well in 6-well plates and pretreated with 640 μM SIN for 1 h, and then challenged with LPS (1 μg/ml) for another 30 min (for NF-κB) or 2 h (for C/EBPβ). Cells were fixed with 4% paraformaldehyde for 30 min at room temperature and then blocked for 1 h with 5% BSA in PBS containing 0.1% Triton X-100. Then incubated with a primary antibodies for overnight and followed by Alexa Fluor 594-labeled goat anti-rabbit IgG. Cells were washed three times, and stained with DAPI for 30 min. After a wash step, cells were fixed on the slide and the images were acquired using a LeicaDM2500 fluorescent microscope (Leica Microsystems GmbH, Wet-zlar, Germany).

`COC1=C[C@@H]2[C@@H]3Cc4ccc(OC)c(O)c4[C@]2(CCN3C)CC1=O` [SIN, sinomenine] was tested, and the “COX-2 level in inflamed paw” value (COX-2) was “did not produce observable effects”, the “DNA binding of CEBPβ to the COX-2 promoter” value (CEBPβ (COX-2 promoter)) was “inhibited” and the “nuclear translocation of p65” value (p65) was “did not produce observable effects”.
